Measured values as given in patent US20060046966A1, “Antipicornaviral compounds and compositions, their pharmaceutical uses, and materials for their synthesis” (Agouron Pharmaceuticals, Inc., priority 1998, published 2006).
Read-outs that look alike come from different tables or passages of the source.

How the values were obtained:
HRV-14 = assay: Antirhinoviral H1-HeLa cell culture assay, HRV-14; assay type: cell-based, human rhinovirus; conditions: HRV serotype-14, H1-HeLa cells
Description: In this cell protection assay, the ability of compounds to protect cells against HRV infection was measured by the XTT dye reduction method, which is described in Weislow et al., J. Natl. Cancer Inst. 1989, vol. 81, 577-586.
(§1) H1-HeLa cells were infected with HRV-14 at a multiplicity of infection (m.o.i.) of 0.13 (virus particles/cell) or mock-infected with medium only. Infected or mock-infected cells were resuspended at 8×10^5 cells per mL, and incubated with appropriate concentrations of the compounds to be tested. Two days later, XTT/PMS was added to test plates and the amount of formazan produced was quantified spectrophotometrically at 450/650 nm. The EC50 value was calculated as the concentration of compound that increased the percentage of formazan production in compound-treated, virus-infected cells to 50% of that produced by compound-free, mock-infected cells. The 50% cytotoxic dose (CC50) was calculated as the concentration of compound that decreased the percentage of formazan produced in compound-treated, mock-infected cells to 50% of that produced by compound-free, mock-infected cells. The therapeutic index (TI) was calculated by dividing the CC50 value by the EC50 value.
(§2) All strains of human rhinovirus (HRV) for use in this assay were purchased from American Type Culture Collection (ATCC), except for HRV serotype-14 (produced from the infectious cDNA clone constructed by Dr. Robert Rueckert, Institute for Molecular Virology, University of Wisconsin, Madison, Wis.). HRV stocks were propagated and viral assays were performed in H1-HeLa cells (ATCC). Cells were grown in minimal essential medium with 10% fetal bovine serum, available from Life Technologies (Gaithersburg, Md.).
The compounds were tested against control compounds WIN 51711, WIN 52084, and WIN 54954 (obtained from Sterling-Winthrop Pharmaceuticals), Pirodavir (obtained from Janssen Pharmaceuticals), and Pleconaril (prepared according to the method described in Diana et al., J. Med. Chem 1995, vol. 38, 1355). Antiviral data obtained for the test compounds are shown in Tables 1 and 3, where all data are for HRV serotype-14 unless otherwise noted in parentheses.

[1] = biological target: T1, rhinovirus 3C protease from HRV serotype-14 (Human rhinovirus 14, UniProt P03303); assay: Inhibition of rhinovirus 3C protease (FRET assay), serotype 14; assay type: biochemical; conditions: HRV serotype-14 3C protease, progress curves in enzyme start experiments; for kinact/KI: read-out: Protease Inhibition kobs/[I]
T1 construct: Recombinant rhinovirus 3C proteases; made in house
T1 sequence (P03303 1538-1719): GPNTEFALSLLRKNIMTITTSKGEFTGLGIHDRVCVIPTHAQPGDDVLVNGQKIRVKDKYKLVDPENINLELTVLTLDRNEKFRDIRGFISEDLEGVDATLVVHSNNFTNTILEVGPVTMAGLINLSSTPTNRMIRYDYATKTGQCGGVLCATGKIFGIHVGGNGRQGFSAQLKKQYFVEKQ
Description: Stock solutions (50 mM, in DMSO) of various compounds were prepared; dilutions were in the same solvent. Recombinant rhinovirus 3C proteases (see Birch et al., “Purification of recombinant human rhinovirus 14 3C protease expressed in Escherichia coli,” Protein Expr. Pur. 1995, 6(5), 609-618) from serotypes 14, 16, and 2 were prepared by the following standard chromatographic procedures: (1) ion exchange using Q Sepharose Fast Flow from Pharmacia; (2) affinity chromatography using Affi-Gel Blue from Biorad; and (3) sizing using Sephadex G-100 from Pharmacia. Each assay sample contained 2% DMSO, 50 mM tris pH 7.6, 1 mM EDTA, a test compound at the indicated concentration, approximately 1 μM substrate, and 50-100 nM protease. The kobs/I values were obtained from reactions initiated by addition of enzyme rather than substrate. RVP activity was measured in the fluorescence resonance energy transfer assay. The substrate was (N-terminal) DABCYL-(Gly-Arg-Ala-Val-Phe-Gln-Gly-Pro-Val-Gly)-EDANS. In the uncleaved peptide, the EDANS fluorescence was quenched by the proximal DABCYL moiety. When the peptide was cleaved, the quenching was relieved, and activity was measured as an increase in fluorescence signal. In Table 1, all data are for rhinovirus 3C protease from HRV serotype-14 (produced from the infectious cDNA clone constructed by Dr. Robert Rueckert, Institute for Molecular Virology, University of Wisconsin, Madison, Wis.). […] The data in the column designated kobs/[I] were measured from progress curves in enzyme start experiments.

[2] = Cytotoxicity in mock-infected H1-HeLa cells (antirhinoviral assay, XTT); assay type: cell-based; conditions: human, 50% cytotoxic dose, two days
Description: as §1, §2

[3] = Rhinovirus B, HRV14, H1-HeLa, Table 1, XTT dye reduction, read-out: Cell Protection EC50
[4] = Rhinovirus B, HRV14, H1-HeLa, Table 3, XTT, read-out: EC50

Row | Molecule | EC50 (HRV-14; [3]) [nM] | EC50 (HRV-14; [4]) [nM] | kinact/KI [1] [M⁻¹ s⁻¹] | CC50 at 2 days [2] [nM] | EC50 (HRV-14; Table 1, XTT dye reduction, read-out: Cell Protection EC50) [nM] | EC50 (HRV-14; Table 3, XTT, read-out: EC50) [nM] | Protease Inhibition kobs/[I] [1]
1 | CCOC(=O)/C=C/[C@H](CCC(N)=O)NC(=O)[C@H](Cc1ccc(F)cc1)N(C)C(=O)[C@H](Cc1cccc2ccccc12)NC(=O)c1cc(C)on1 [Compound A-13, Ethyl-3-{(5′-Methylisoxazole-3′-carbonyl)-L-(1-Naphth)-NCH3-L-(4-F-Phe)-L-Gln}-E-Propenoate] | 200 | 200 | 95800 | – | – | – | –
2 | CCOC(=O)/C=C/[C@H](C[C@H]1CCNC1=O)NC(=O)[C@H](Cc1ccccc1)NC(=O)[C@H](CC(C)C)NC(=O)OCc1ccccc1 [Compound A-27, Ethyl-3-{Cbz-L-Leu-L-Phe-L-((R)-Pyrrol-Ala)}-E-Propenoate] | 1600 | 1600 | 18000 | – | – | – | –
3 | CCOC(=O)/C=C/[C@H](CCC(N)=O)NC(=O)[C@H](Cc1ccccc1)NC(=O)[C@H](CC(C)C)NC(=O)c1cc(C)cs1 [Compound A-23] | – | – | 26000 | – | – | – | –
4 | CCOC(=O)/C=C/[C@H](C[C@@H]1CCCNC1=O)NC(=O)[C@@H](CC(=O)[C@@H](NC(=O)c1cc(C)on1)C(C)C)Cc1ccc(F)cc1 [Compound B-4, Ethyl-3-[(5′-Methylisoxazole-3′-carbonyl)-L-ValΨ(COCH2)-L-(4-F-Phe)-L-((S)-Piper-Ala)}-E-Propenoate] | < 30 | < 30 | 500000 | – | – | – | –
5 | CCOC(=O)/C=C/[C@H](C[C@@H]1CCNC1=O)NC(=O)[C@H](Cc1ccccc1)NC(=O)[C@@H](NC(=O)OCc1ccccc1)C(C)C [Compound A-25, Ethyl-3-{Cbz-L-Val-L-Phe-L-((S)-Pyrrol-Ala)}-E-Propenoate] | 30 | 30 | 500000 | – | – | – | –
6 | CCOC(=O)/C=C/[C@H](CCC(N)=O)NC(=O)[C@H](Cc1ccc(F)cc1)N(C)C(=O)[C@H](CC(C)C)NC(=O)c1cc(C)on1 [Compound A-12, Ethyl-3-{(5′-Methylisoxazole-3′-carbonyl)-L-Leu-NCH3-L-(4-F-Phe)-L-Gln}-E-Propenoate] | 400 | 400 | 59300 | – | – | – | –
7 | CCOC(=O)/C=C/[C@H](C[C@@H]1CCCNC1=O)NC(=O)[C@H](Cc1ccccc1)NC(=O)[C@H](CC(C)C)NC(=O)OCc1ccccc1 [Compound A-26, Ethyl-3-{Cbz-L-Leu-L-Phe-L-((S)-Piper-Ala)}-E-Provenoate] | 30 | 30 | 239000 | – | – | – | –
8 | CCOC(=O)/C=C/[C@H](CCC(N)=O)NC(=O)[C@H](Cc1ccc(F)cc1)N(C)C(=O)[C@H](Cc1c[nH]cn1)NC(=O)c1cc(C)on1 [Compound A-9, Ethyl-3-{(5′-Methylisoxazole-3′-carbonyl)-L-His-NCH3-L-(4-F-Phe)-L-Gln}-E-Propenoate] | 1800 | 1800 | 66000 | – | – | – | –
9 | CC(C)C[C@H](NC(=O)OCc1ccccc1)C(=O)N[C@@H](Cc1ccccc1)C(=O)N[C@H](/C=C/c1ccno1)CCC(N)=O [Comparison Compound #1, 5-(3′-(Cbz-L-Leu-L-Phe-L-Gln)-E-Propene)-isoxazole, reference compound] | > 320000 | > 320000 | 573 | – | – | – | –
10 | CCOC(=O)/C=C/[C@H](CCC(N)=O)NC(=O)[C@H](Cc1ccc(F)cc1)N(C)C(=O)[C@H](Cc1ccc2ccccc2c1)NC(=O)c1cc(C)on1 [Compound A-11, Ethyl-3-{(5′-Methylisoxazole-3′-carbonyl)-L-(2-Naphth)-NCH3-L-(4-F-Phe)-L-Gln}-E-Propenoate] | 30 | 30 | 108000 | – | – | – | –
11 | CCOC(=O)/C=C/[C@H](CCC(N)=O)NC(=O)[C@H](Cc1ccc(C)cc1)NC(=O)[C@@H](NC(=O)c1cc(C)on1)C(C)(C)C [Compound A-3, Ethyl-3-((5′-Methylisoxazole-3′-carbonyl)-L-α-(t-Butyl-Gly)-L-(4-Me-Phe)-L-Gln)-E-Propenoate] | 50 | 50 | 310000 | – | – | – | –
12 | CCOC(=O)/C=C/[C@H](CCC(N)=O)NC(=O)[C@H](Cc1ccccc1)NC(=O)[C@H](CC(C)C)NC(=O)[C@@H]1C=CCN1 [Compound A-19] | 25100 | 25100 | 27800 | > 100000 | – | – | –
13 | Cc1cc(C(=O)N[C@H](C(=O)C[C@@H](Cc2ccc(F)cc2)C(=O)N[C@H](/C=C2\CCOC2=O)C[C@@H]2CCNC2=O)C(C)C)no1 [Compound B-3, 2-{(5′-Methylisoxazole-3′-carbonyl)-L-ValΨ(COCH2)-L-(4-F-Phe)-L-((S)-Pyrrol-Ala)}-E-(α-Vinyl-γ-Butyrolactone)] | 180 | 180 | 465000 | – | – | – | –
14 | CCOC(=O)/C=C/[C@H](CCC(N)=O)NC(=O)[C@H](Cc1ccccc1)NC(=O)[C@@H](NC(=O)c1cccs1)C(C)(C)C [Compound A-14] | 480 | 480 | 54500 | > 100000 | – | – | –
15 | CCOC(=O)/C=C/[C@H](C[C@@H]1CCCNC1=O)NC(=O)[C@H](Cc1ccc(F)cc1)NC(=O)[C@@H](NC(=O)c1cc(C)on1)C(C)C [Compound A-8, Ethyl-3-[(5′-Methylisoxazole-3′-carbonyl)-L-Val-L-(4-F-Phe)-L-((S)-Piper-Ala)}-E-Propenoate] | – | – | 900000 | – | – | – | –
16 | CCOC(=O)/C=C/[C@H](CCC(N)=O)NC(=O)[C@H](Cc1ccc(F)cc1)OC(=O)[C@@H](NC(=O)c1cc(C)on1)C(C)C [Compound C-1, Ethyl-3-{(5′-Methylisoxazole-3′-carbonyl)-L-Val-O-L-(4-F-Phe)-L-Gln}-E-Propenoate] | 100 | 100 | 68400 | – | – | – | –
17 | CCOC(=O)/C=C/[C@H](CCC(N)=O)NC(=O)[C@H](Cc1ccc(F)cc1)NC(=O)[C@@H](NC(=O)c1cc(C)on1)C(C)C [Compound A-6, Ethyl-3-[(5′-Methylisoxazole-3′-carbonyl)-L-Val-L-(4-F-Phe)-L-Gln]-E-Propenoate] | 420 | 420 | 248000 | – | – | – | –
18 | CCOC(=O)/C=C/[C@H](CCC(N)=O)NC(=O)[C@H](Cc1ccccc1)NC(=O)[C@H](CC(C)C)NC(=O)c1cc(C)oc1C [Compound A-20] | 12600 | 12600 | 1020 | > 100000 | – | – | –
19 | CCOC(=O)/C=C/[C@H](CCC(N)=O)NC(=O)[C@H](Cc1ccccc1)NC(=O)[C@H](CC(C)C)NC(=O)c1cc(C)[nH]n1 [Compound A-22] | – | – | 2400 | – | – | – | –
20 | CCOC(=O)/C=C/[C@H](CCC(N)=O)NC(=O)[C@H](Cc1ccccc1)NC(=O)[C@H](CC(C)C)NC(=O)c1nc(C)c[nH]1 [Compound A-21] | 2500 | 2500 | 17800 | > 100000 | – | – | –
21 | CCOC(=O)/C=C/[C@H](CCC(N)=O)NC(=O)[C@H](Cc1ccc(F)cc1)NC(=O)[C@@H](NC(=O)c1cc(C)on1)C(C)(C)C [Compound A-4, Ethyl-3-((5′-Methylisoxazole-3′-carbonyl)-L-α-(t-Butyl-Gly)-L-(4-F-Phe)-L-Gln)-E-Provenoate] | 100 | 100 | 270000 | – | – | – | –
22 | Ethyl-3-((5′-Methylisoxazole-3′-carbonyl)-L-Leu-NCH3-L-Phe-L-Gln)-E-Provenoate [Compound A-10] | – | – | – | – | 140 | 140 | 108,000 M^−1sec^−1
